Measurements from patent publication US20260028336A1 (Arcus Biosciences, Inc., priority 2022, published 2026).

Molecular target: T1, Cbl-b (Homo sapiens, UniProt Q13191)
T1 construct: biotin (biotinylated)
Assay: Cbl-b probe displacement HTRF binding assay
Details: 0.4 nM biotinylated Cbl-b, 150 nM BODIPY probe
Description: The affinity with which compounds of the present dislcosure bind to Cbl-b was assessed using probe displacement homologous time resolved fluorescence (HTRF) assays. […] The assays were performed in assay buffer consisting of 20 mM Hepes, 150 mM NaCl, 0.01% Triton X-100, 0.5 mM TCEP, 0.01% BSA. On the day of the assay, a 20 point, 1:2 master serial dilution of each compound was prepared in DMSO to span a final concentration range of […] to 0 nM. Two hundred nanoliters of diluted compound was added to each well of a 384-well plate. Fifteen microliters of biotinylated-Cbl-b resuspended in assay buffer were added to each well and the plate incubated for 60 minutes at room temperature prior to addition of 5 μL of BODIPY™ probe in assay buffer. […] After a further 15 minutes of incubation at room temperature, 5 μl of Streptavidin-Terbium cryptate reagent at 5-fold final concentration was added to each well of the 384-well plate. Binding of a probe to Cbl-b results in an increase of HTRF signal. […] Percentage maximum activity in each test well was calculated based on DMSO (maximum activity, 0% displacement) and no protein control wells (baseline activity, 100% displacement). Binding affinity was determined from a dose response curve fitted using a standard four parameter fit equation.

T1 sequence (Q13191 whole entry, species assumed): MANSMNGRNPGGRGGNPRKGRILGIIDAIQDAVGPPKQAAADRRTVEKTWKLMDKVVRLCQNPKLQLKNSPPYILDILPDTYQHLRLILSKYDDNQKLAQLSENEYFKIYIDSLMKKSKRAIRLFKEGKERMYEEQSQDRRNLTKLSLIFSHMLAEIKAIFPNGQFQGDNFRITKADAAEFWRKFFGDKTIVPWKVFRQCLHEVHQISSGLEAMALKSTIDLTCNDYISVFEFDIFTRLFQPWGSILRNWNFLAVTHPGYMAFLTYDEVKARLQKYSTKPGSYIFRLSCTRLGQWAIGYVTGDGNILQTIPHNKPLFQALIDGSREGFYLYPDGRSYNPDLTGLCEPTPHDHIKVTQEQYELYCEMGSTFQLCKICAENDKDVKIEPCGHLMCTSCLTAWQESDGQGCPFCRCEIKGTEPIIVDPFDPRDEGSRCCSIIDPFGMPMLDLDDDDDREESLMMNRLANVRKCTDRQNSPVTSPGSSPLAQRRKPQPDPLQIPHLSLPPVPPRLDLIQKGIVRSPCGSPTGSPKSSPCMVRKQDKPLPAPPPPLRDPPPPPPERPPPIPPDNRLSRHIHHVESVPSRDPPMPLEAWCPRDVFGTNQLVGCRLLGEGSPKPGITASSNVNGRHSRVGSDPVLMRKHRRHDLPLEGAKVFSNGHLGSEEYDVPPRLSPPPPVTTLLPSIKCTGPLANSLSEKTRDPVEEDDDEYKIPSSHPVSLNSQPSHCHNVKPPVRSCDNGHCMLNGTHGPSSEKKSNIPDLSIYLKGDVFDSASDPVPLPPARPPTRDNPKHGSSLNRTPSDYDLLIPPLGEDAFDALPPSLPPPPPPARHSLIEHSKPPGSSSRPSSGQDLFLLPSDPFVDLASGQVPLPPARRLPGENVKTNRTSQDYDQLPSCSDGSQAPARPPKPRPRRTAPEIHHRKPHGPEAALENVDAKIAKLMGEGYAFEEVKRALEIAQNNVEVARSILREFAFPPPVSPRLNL

| IC50 | SMILES |
| --- | --- |
| < 100 nM | CC1CC(c2cccc(-n3cc(C(F)(F)F)c4c(S(C)(=O)=O)c[nH]c4c3=O)c2)(c2nncn2C)C1 (mixture of isomers) [Example 139, 3-Methanesulfonyl-6-{3-[(1S,3R)-3-methyl-1-(4-methyl-4H-1,2,4-triazol-3-yl)cyclobutyl]phenyl}-4-(trifluoromethyl)-1H,6H,7H-pyrrolo[2,3-c]pyridin-7-one] |
| < 100 nM | CC1CC(c2cccc(-n3cc(C4CC4)c4cc(CN5CCC[C@H](C(F)(F)F)C5)[nH]c4c3=O)c2)(c2nncn2C)C1 (stereo partly shown) [Example 48, 4-cyclopropyl-6-{3-[3-methyl-1-(4-methyl-4H-1,2,4-triazol-3-yl)cyclobutyl]phenyl}-2-{[(3S′)-3-(trifluoromethyl)piperidin-1-yl]methyl}-1H,6H,7H-pyrrolo[2,3-c]pyridin-7-one] |
| 1000 to 5000 nM | Cn1cnnc1[C@]1(c2cccc(-n3ccc4cc[nH]c4c3=O)c2)C[C@H](C)C1 (single isomer, unassigned) [Example 30, 6-{3-[(1r,3s)-3-methyl-1-(4-methyl-4H-1,2,4-triazol-3-yl)cyclobutyl]phenyl}-1H,6H,7H-pyrrolo[2,3-c]pyridin-7-one] |
| < 100 nM | Cn1cnnc1C1(c2cccc(-n3cc(C4CC4)c4cc(CNC5(C)CC(F)(F)C5)[nH]c4c3=O)c2)CC(F)(F)C1 [Example 81, 4-cyclopropyl-6-{3-[3,3-difluoro-1-(4-methyl-4H-1,2,4-triazol-3-yl)cyclobutyl]phenyl}-2-{[(3,3-difluoro-1-methylcyclobutyl)amino]methyl}-1H,6H,7H-pyrrolo[2,3-c]pyridin-7-one] |
| 100 to 1000 nM | Cn1cnnc1[C@]1(c2cccc(-n3cc(C4CC4)c4c(S(C)(=O)=O)c[nH]c4c3=O)c2)C[C@@H](C)C1 (single isomer, unassigned) [Example 26, 4-Cyclopropyl-3-methanesulfonyl-6-{3-[(1s,3r)-3-methyl-1-(4-methyl-4H-1,2,4-triazol-3-yl)cyclobutyl]phenyl}-1H,6H,7H-pyrrolo[2,3-c]pyridin-7-one] |
| 100 to 1000 nM | CC(O)c1c[nH]c2c(=O)n(-c3cccc([C@]4(c5nncn5C)C[C@H](C)C4)c3)cc(C3CC3)c12 (single isomer, unassigned) [Example 24] |
| 1000 to 5000 nM | Cn1cnnc1[C@]1(c2cccc(-n3cc(C4CC4)c4c(C(=O)O)c[nH]c4c3=O)c2)C[C@H](C)C1 (single isomer, unassigned) [Example 19, 4-Cyclopropyl-7-oxo-6-{3-[(1r,3s)-3-methyl-1-(4-methyl-4H-1,2,4-triazol-3-yl)cyclobutyl]phenyl}-1H,6H,7H-pyrrolo[2,3-c]pyridine-3-carboxylic acid] |
| 100 to 1000 nM | Cn1cnnc1[C@]1(c2cccc(-n3cc(C4CC4)c4c(S(C)(=O)=O)c[nH]c4c3=O)c2)C[C@H](C)C1 (single isomer, unassigned) [Example 25, 4-Cyclopropyl-3-methanesulfonyl-6-{3-[(1r,3s)-3-methyl-1-(4-methyl-4H-1,2,4-triazol-3-yl)cyclobutyl]phenyl}-1H,6H,7H-pyrrolo[2,3-c]pyridin-7-one] |
| < 100 nM | CC(c1ccnc(-n2cc(C3CC3)c3cc(CN4CCC[C@H](C)C4)[nH]c3c2=O)c1)c1nncn1C (stereo partly drawn) [Example 157, 2—{[(S)-3-methyl-1-piperidyl]methyl}-4-cyclopropyl-6-{4-[1-(4-methyl-4H-1,2,4-triazol-3-yl)ethyl]-2-pyridyl}-1,6-dihydro-1,6-diaza-7-indenone] |
| 100 to 1000 nM | CC1CC(c2cccc(-n3cc(C4CC4)c4nc[nH]c4c3=O)c2)(c2nncn2C)C1 (stereo not shown) [Example 11, 7-cyclopropyl-5-{3-[(1r,3s)-3-methyl-1-(4-methyl-4H-1,2,4-triazol-3-yl)cyclobutyl]phenyl}-3H,4H,5H-imidazo[4,5-c]pyridin-4-one] |
| < 100 nM | CC1CC(c2cccc(-n3cc(C4CC4)c4cc(CN5CCCC6CC65)[nH]c4c3=O)c2)(c2nncn2C)C1 (stereo not shown) [Example 44, 2-({2-azabicyclo[4.1.0]heptan-2-yl}methyl)-4-cyclopropyl-6-{3-[3-methyl-1-(4-methyl-4H-1,2,4-triazol-3-yl)cyclobutyl]phenyl}-1H,6H,7H-pyrrolo[2,3-c]pyridin-7-one] |
| < 100 nM | Cn1cncc1-c1c[nH]c2c(=O)n(-c3cccc([C@]4(c5nncn5C)C[C@H](C)C4)c3)cc(C3CC3)c12 (single isomer, unassigned) [Example 35] |
| < 100 nM | Cn1cnnc1[C@]1(c2cccc(-n3cc(C(F)(F)F)c4c(S(C)(=O)=O)c[nH]c4c3=O)c2)C[C@H](C)C1 [Example 138, 3-Methanesulfonyl-6-{3-[(1R,3S)-3-methyl-1-(4-methyl-4H-1,2,4-triazol-3-yl)cyclobutyl]phenyl}-4-(trifluoromethyl)-1H,6H,7H-pyrrolo[2,3-c]pyridin-7-one] |
| 100 to 1000 nM | Cn1cnnc1[C@]1(c2cccc(-n3ccc4c(C#N)c[nH]c4c3=O)c2)C[C@H](C)C1 (single isomer, unassigned) [Example 27, 7-Oxo-6-{3-[(1r,3s)-3-methyl-1-(4-methyl-4H-1,2,4-triazol-3-yl)cyclobutyl]phenyl}-1H,6H,7H-pyrrolo[2,3-c]pyridine-3-carbonitrile] |
| < 100 nM | Cn1cnnc1C1(c2cccc(-n3cc(C4CC4)c4cc(CNC5CCC(F)(F)C5)[nH]c4c3=O)c2)CC(F)(F)C1 (stereo not shown) [Example 80, 4-cyclopropyl-6-{3-[3,3-difluoro-1-(4-methyl-4H-1,2,4-triazol-3-yl)cyclobutyl]phenyl}-2-{[(3,3-difluorocyclopentyl)amino]methyl}-1H,6H,7H-pyrrolo[2,3-c]pyridin-7-one] |
| 100 to 1000 nM | Cn1cnnc1[C@]1(c2cccc(-n3cc(C4CC4)c4c(C(F)(F)F)c[nH]c4c3=O)c2)C[C@H](C)C1 [Example 18, 4-Cyclopropyl-6-{3-[(1r,3s)-3-methyl-1-(4-methyl-4H-1,2,4-triazol-3-yl)cyclobutyl]phenyl}-3-(trifluoromethyl)-1H,6H,7H-pyrrolo[2,3-c]pyridin-7-one] |
| 100 to 1000 nM | Cn1cnnc1C1(c2cccc(-n3cc(C4CC4)c4cc[nH]c4c3=O)c2)CC2(CC2)C1 [Example 10, 4-cyclopropyl-6-[3-[5-(4-methyl-1,2,4-triazol-3-yl)spiro[2.3]hexan-5-yl]phenyl]-1H-pyrrolo[2,3-c]pyridin-7-one] |
| 1000 to 5000 nM | CC1CC(c2cccc(-n3cc(C4CC4)c4cc(-c5cnn(C)c5)[nH]c4c3=O)c2)(c2nncn2C)C1 (mixture of isomers) [Example 32, 4-cyclopropyl-6-{3-[3-methyl-1-(4-methyl-4H-1,2,4-triazol-3-yl)cyclobutyl]phenyl}-2-(1-methyl-1H-pyrazol-4-yl)-1H,6H,7H-pyrrolo[2,3-c]pyridin-7-one] |
| > 5000 nM | CC1CC(c2cccc(-n3cc(C4CC4)c4ccsc4c3=O)c2)(c2nncn2C)C1 (stereo not shown) [Example 6, 4-cyclopropyl-6-{3-[3-methyl-1-(4-methyl-4H-1,2,4-triazol-3-yl)cyclobutyl]phenyl}-6H,7H-thieno[2,3-c]pyridin-7-one] |
| 100 to 1000 nM | Cn1cnnc1[C@]1(c2cccc(-n3ccc4c(C#N)c[nH]c4c3=O)c2)C[C@@H](C)C1 (single isomer, unassigned) [Example 28, 7-Oxo-6-{3-[(1s,3r)-3-methyl-1-(4-methyl-4H-1,2,4-triazol-3-yl)cyclobutyl]phenyl}-1H,6H,7H-pyrrolo[2,3-c]pyridine-3-carbonitrile] |
| < 100 nM | CC(=O)c1c[nH]c2c(=O)n(-c3cccc([C@]4(c5nncn5C)C[C@H](C)C4)c3)cc(C3CC3)c12 (single isomer, unassigned) [Example 22, 3-Acetyl-4-cyclopropyl-6-{3-[(1s,3r)-3-methyl-1-(4-methyl-4H-1,2,4-triazol-3-yl)cyclobutyl]phenyl}-1H,6H,7H-pyrrolo[2,3-c]pyridin-7-one] |
| 100 to 1000 nM | CC(O)c1c[nH]c2c(=O)n(-c3cccc([C@]4(c5nncn5C)C[C@@H](C)C4)c3)cc(C3CC3)c12 (single isomer, unassigned) [Example 23] |
| > 5000 nM | CC1CC(c2cccc(-n3cc(C4CC4)c4cc(CN5CCC[C@H](C)C5)n(C)c4c3=O)c2)(c2nncn2C)C1 (stereo partly drawn) [Example 5, 4-cyclopropyl-1-methyl-6-[3-[3-methyl-1-(4-methyl-1,2,4-triazol-3-yl)cyclobutyl]phenyl]-2-[[(3S)-3-methylpiperidin-1-yl]methyl]pyrrolo[2,3-c]pyridin-7-one] |
| 1000 to 5000 nM | Cn1cnnc1[C@]1(c2cccc(-n3cc(C4CC4)c4c(C(=O)O)c[nH]c4c3=O)c2)C[C@@H](C)C1 (single isomer, unassigned) [Example 20, 4-Cyclopropyl-7-oxo-6-{3-[(1s,3r)-3-methyl-1-(4-methyl-4H-1,2,4-triazol-3-yl)cyclobutyl]phenyl}-1H,6H,7H-pyrrolo[2,3-c]pyridine-3-carboxylic acid] |

| SMILES | IC50 |
| --- | --- |
| CC1CC(c2cccc(-n3cc(C4CC4)c4cc(CN5CC6CC(C5)O6)[nH]c4c3=O)c2)(c2nncn2C)C1 (stereo not shown) [Example 53, 4-cyclopropyl-6-{3-[3-methyl-1-(4-methyl-4H-1,2,4-triazol-3-yl)cyclobutyl]phenyl}-2-({6-oxa-3-azabicyclo[3.1.1]heptan-3-yl}methyl)-1H,6H,7H-pyrrolo[2,3-c]pyridin-7-one] | < 100 nM |
